Where a name gives a salt, the structure may show the parent alone. Marks after values point to notes of the source that are not given here.
Tests used:
[1] = test system: healthy post-menopausal women; test: 8-week parallel, double-blind, placebo study: markers of bone metabolism (GGGC); format: in vivo, human; settings: 8 weeks
Protocol: (§1) An 8-week parallel, double-blind, placebo study in approximately 160 healthy post-menopausal women was completed. The doses of raloxifene used in this study were 10, 50, and 200 mg. […] (See Table I) Because of development over time seen with many bone markers, a raloxifene dose of 50 mg/day will likely be fully active when evaluated during a study of longer duration.

[2] = test system: healthy post-menopausal women; test: 8-week parallel, double-blind, placebo study: serum lipids (GGGC); format: in vivo, human; settings: 8 weeks
Protocol: as §1
Serum lipid levels were affected by raloxifene doses of 50 and 200 mg (Table II).

O=C(c1ccc(OCCN2CCCCC2)cc1)c1c(-c2ccc(O)cc2)sc2cc(O)ccc12 [Raloxifene, 6-hydroxy-2-(4-hydroxyphenyl)-3[4-(2-piperidinoethoxy)benzoyl]benzo[b]thiophene, hydrochloride] was tested, and the “activity with either bone marker (in words)” value ([1]; 10 mg dose) was “no significant activity”, the “Serum alkaline phosphatase, mean group change from baseline to endpoint” value ([1]; raloxifene 10 mg, n = 42) was 0.21 U/L and the “Serum osteocalcin, mean group change from baseline to endpoint” value (“Serum osteocalcin, mean group change” for short) ([1]; raloxifene 10 mg, n = 42) was -0.27 ng/mL. For the same compound, the “Serum alkaline phosphatase, mean group change from baseline to endpoint” value ([1]; raloxifene 50 mg, n = 42) was −4.78 U/L, the “Serum osteocalcin, mean group change” value ([1]; raloxifene 50 mg, n = 42) was -0.81 ng/mL and the “Serum alkaline phosphatase, mean group change from baseline to endpoint” value ([1]; raloxifene 200 mg, n = 41) was −5.93* U/L. The “Serum osteocalcin, mean group change” value ([1]; raloxifene 200 mg, n = 41) was −1.21* ng/mL, the “LDL cholesterol (in words)” value ([2]; 50 mg) was “Decreases” and the “LDL cholesterol (in words)” value ([2]; 200 mg) was “comparable decrease”. For the same compound, the “HDL:LDL ratios (in words)” value ([2]; both the 50 and 200 mg doses) was “Statistically significant decreases”, the “total serum cholesterol levels (in words)” value ([2]; both the 50 and 200 mg doses) was “Statistically significant decreases” and the “HDL-C, mean group change from baseline to endpoint” value (“HDL-C, mean group change” for short) ([2]; raloxifene 10 mg, n = 42) was 0.01 mmol/L. The “HDL-C:LDL-C ratio, mean group change from baseline to endpoint” value (“HDL-C:LDL-C ratio, mean group change” for short) ([2]; raloxifene 10 mg, n = 42) was 0.00, the “LDL-C, mean group change from baseline to endpoint” value (“LDL-C, mean group change” for short) ([2]; raloxifene 10 mg, n = 42) was 0.05 mmol/L and the “Toal cholesterol, mean group change from baseline to endpoint” value (“Toal cholesterol, mean group change” for short) ([2]; raloxifene 10 mg, n = 42) was 0.01 mmol/L. The “HDL-C, mean group change” value ([2]; raloxifene 50 mg, n = 42) was 0.04 mmol/L, the “HDL-C:LDL-C ratio, mean group change” value ([2]; raloxifene 50 mg, n = 42) was 0.03* and the “LDL-C, mean group change” value ([2]; raloxifene 50 mg, n = 42) was −0.23* mmol/L. For the same compound, the “Toal cholesterol, mean group change” value ([2]; raloxifene 50 mg, n = 42) was −0.23* mmol/L, the “HDL-C, mean group change” value ([2]; raloxifene 200 mg, n = 41) was 0.02 mmol/L and the “HDL-C:LDL-C ratio, mean group change” value ([2]; raloxifene 200 mg, n = 41) was 0.03*. For the same compound, the “LDL-C, mean group change” value ([2]; raloxifene 200 mg, n = 41) was -0.17 mmol/L, the “Toal cholesterol, mean group change” value ([2]; raloxifene 200 mg, n = 41) was -0.15 mmol/L and the “HDL levels (in words)” value ([2]; raloxifene-treated subjects) was “no changes”.

— patent publication USRE39050E1, “Methods of use for inhibiting bone loss and lowering serum cholesterol” (Eli Lilly and Company, priority 1994, dated 2006)
